Experimental data reported in patent US9678060B2, “Lunasin-induced regulation of disease-related gene expression” (THE REGENTS OF THE UNIVERSITY OF CALIFORNIA, priority 2007, dated 2017).

Assays:
[1] = test system: non-tumorigenic prostate epithelial cell line (RWPE-1); assay: Microarray gene expression profile after 24 hour exposure to lunasin; type: cell-based, human
Experimental: (§1) In the present disclosure the investigators analyzed changes in gene expression profiles of normal (RWPE-1) and malignant (RWPE-2) prostate epithelial cell lines after 24 hour exposure to synthetic lunasin. Results disclosed herein support the anti-neoplastic property of lunasin and help elucidate its molecular mechanism. […] It is therefore reasoned that lunasin suppresses neoplastic transformation by up-regulating various genes.
(§2) To determine the genetic changes associated with lunasin treatment, the gene expression profiles of non-tumorigenic (RWPE-1) (SEQ ID No.2) and tumorigenic (RWPE-2) (SEQ ID No.2) prostate cells treated with synthetic lunasin were assessed using microarray analysis.

[2] = test system: tumorigenic prostate epithelial cell line (RWPE-2); assay: as above; type: cell-based, human
Experimental: as §1, §2

[3] = molecular target: T1, histone H4 N-terminal tail lysines acetylated by PCAF (Homo sapiens, UniProt P62805); assay: In vitro histone acetylation (HAT) assay, PCAF; type: biochemical; details: 2 μM lunasin
T1 construct: Acid extracted histones from untreated Hela cells; endogenous in cells; host or cells: HeLa
From the text: (§3) Inhibition of histone acetylation and hypoacetylated histones are by nature correlated with transcriptional silencing and downregulation of genes. How then can lunasin, which inhibits H3 and H4 N-terminal tail acetylation, act as a transcriptional activator? To answer this question, the inventors determined the effect of lunasin on the acetylation of specific lysine residues on the H4 N-terminal tail ([…]) using the PCAF, Hat1 and p300 histone acetylase enzymes and acid-extracted core histones as substrate.
(§4) Acid extracted histones from untreated Hela cells and purified recombinant histone H4 are used as templates in an in vitro histone acetylation (HAT) assay. Histone templates are pre-incubated in the presence or absence of 2 μM lunasin peptide for 30 min at RT before the addition of acetyl co-A, HAT reaction buffer and histone acetylase enzymes (p300, HAT1 and PCAF). HAT reaction mixture is incubated with shaking at 30° C. for 1 h before stopping the reaction by adding protein sample buffer and boiling for 5 min. Samples are run on 10-20% SDS-PAGE gels, blotted onto nitrocellulose membranes and immunostained with antibodies against histone H4 with specific N-terminal lysine acetylation sites at […], 8, 12 and 16. Densitometer readings are normalized using signals from untreated histone templates.

[4] = molecular target: T2, histone H4 N-terminal tail lysines acetylated by Hat1 (Homo sapiens, UniProt P62805); assay: In vitro histone acetylation (HAT) assay, Hat1; type: biochemical
T2 construct: Acid extracted histones from untreated Hela cells; endogenous in cells; host or cells: HeLa
From the text: as §3, §4

[5] = molecular target: T3, histone H4 N-terminal tail lysines acetylated by p300 (Homo sapiens, UniProt P62805); assay: In vitro histone acetylation (HAT) assay, p300; type: biochemical
T3 construct: Acid extracted histones from untreated Hela cells; endogenous in cells; host or cells: HeLa
From the text: as §3, §4

[6] = test system: UGT1A family of genes in HepG2 liver cells; assay: UGT1A expression in HepG2 cells (Western blot, RT-PCR); type: cell-based; details: 24 h
Experimental: HepG2 liver cells are grown in cell culture in the presence or absence of 10 uM lunasin peptide. After 24 h exposure, cells are harvested and total protein and RNA are harvested. Western blots are immunostained with UGT1A1 antibody and densitometer signals normalized using actin controls. […] Real-time quantitative RT-PCR will be conducted to measure differences in transcription levels.

thrombospondin (THBS) = assay: Western blot of THBS protein in RWPE-1 and RWPE-2 cells; type: cell-based, human
From the text: (§5) THBS contains a CpG island within its promoter which together with other chemopreventative genes and tumor suppressors are frequently found to be hypermethylated during cancer formation. Since DNA hypermethylation of CpG islands is associated with histone hypoacetylation, we wanted to determine if there is a loss of H4-Lys16 acetylation within this region of the gene by conducting PCR on chromatin immunoprecipitated (ChiP) DNA using acetylated H4-Lys16 antibody and primers derived from the promoter/CpG island and exon 11 of the thrombospondin gene. […] The loss of H4-Lys16 acetylation on CpG island of the THBS promoter in tumor prostate cells leads to the silencing of the THBS gene and the inability of lunasin to increase H4-Lys16 acetylation and upregulate expression in tumorigenic cell lines.
(§6) THBS protein levels were determined in RWPE-1 and -2 cell lines treated with or without lunasin. PCR was conducted on ChIP DNA isolated with acetylated H4-Lys16 antibody, using primers derived from the promoter and exon 11 of the THBS gene.

[7] = test system: H4-Lys16 acetylation at THBS gene promoter/CpG island; assay: PCR of ChIP DNA isolated with acetylated H4-Lys16 antibody; type: cell-based, human; details: lunasin-treated RWPE-1 (non-tumorigenic)
From the text: as §5, §6

deacetylated histone H4 = deacetylated histone H4 (Homo sapiens, UniProt P62805); assay: Binding to histone H4 (FIG. 8)
[8] = test system: C3H 10T1/2 mouse embryo fibroblast cells; details: C3H/T101/2 cells pre-treated 24 hour with lunasin (as little as 125 nM), then DMBA and MCA; six weeks assay; cited from earlier work
[9] = test system: p21/WAF1/Cip1 in NIH 3T3 cells; details: NIH 3T3 cells pre-treated 24 h, eight days after E1A transfection; cited from earlier work
female SENCAR mice = details: topical application; cited from earlier work
[10] = test system: E1A-transfected C3H10T1/2 cells; details: cited from earlier work
[11] = test system: E1A-transfected mouse fibroblast NIH 3T3 cells; details: E1A-transfected NIH 3T3 cells; cited from earlier work
[12] = RWPE-1, 24 hour exposure to 2 micromolar lunasin
[13] = acid-extracted core histones, 2 μM lunasin
[14] = basal acid-extracted core histones, 2 μM lunasin
[15] = lunasin-treated acid-extracted core histones, 2 μM lunasin
[16] = recombinant H4, same in lunasin-treated and non-treated

- H4-Lys 5 acetylation by pCAF ([3]; acid-extracted core histones): did not reduce
- inhibition of H4-Lys 8 acetylation by PCAF ([3]; basal acid-extracted core histones): 33%
- H4-Lys 5 acetylation by Hat1 [4, 13]: did not reduce
- H4-Lys12 acetylation by Hat1 [4, 13]: did not reduce
- inhibition of H4-Lys 8 acetylation by Hat1 [4, 14]: 30%
- increase in H4-Lys16 acetylation by Hat1 [4, 15]: 30%
- Lys16 acetylation by Hat1, recombinant H4 as substrate [4, 16]: loss of Lys16 acetylation
- H4-Lys12 acetylation by p300 [5, 13]: did not reduce
- inhibition of H4-Lys 8 acetylation by p300 [5, 14]: 23.5%
- increase in H4-Lys16 acetylation by p300 [5, 15]: 22%
- Lys16 acetylation by p300, recombinant H4 as substrate [5, 16]: loss of Lys16 acetylation
Substance: lunasin: 43 amino acid small subunit of a soybean 2S albumin; residues 22-64 of SEQ ID NO:2 of U.S. Pat. No. 6,544,956; used as synthetic peptide
- Number of genes up-regulated (greater than twofold change) ([1]; RWPE-1, 2 μM lunasin for 24 hours, 14500 genes interrogated): 121 genes
- Fold-change BNIP3, NIP3 [1, 12]: 2.05
- Fold-change BUB1B, BUBR1 [1, 12]: 2.23
- Fold-change ERBB2IP, ERBIN [1, 12]: 2.23
- Fold-change MAD2L1 [1, 12]: 2.12
- Fold-change PORIMIN [1, 12]: 2.26
- Fold-change PRKAR1A, PKA [1, 12]: 2.45
- Fold-change PRKCL2, PRK2 [1, 12]: 2.33
- Fold-change PSMC6 [1, 12]: 2.58
- Fold-change RANBP2 [1, 12]: 2.36
- Fold-change SMURF2 [1, 12]: 2.29
- Fold-change SPTLC1 [1, 12]: 2.12
- Fold-change THBS1, TSP1 [1, 12]: 2.05
- Fold-change TOB1 [1, 12]: 2.32
- Fold-change TTK [1, 12]: 2.08
- Fold-change UBE1C [1, 12]: 2.15
- Fold-change USP1 [1, 12]: 2.23
- SP3 expression in microarray ([1]; at 24 hours): upregulated
- Genes down-regulated ([1]; non-tumorigenic epithelial cells, 2 μM lunasin): No genes were down-regulated
- p21/WAF1/Cip1 expression in microarray ([1]; within 24 hours): did not show upregulation
- Genes up-regulated (greater than twofold change) ([2]; RWPE-2, 2 μM lunasin for 24 hours, 14500 genes interrogated): only two genes were up-regulated
- Genes down-regulated ([2]; tumorigenic epithelial cells, 2 μM lunasin): No genes were down-regulated
- UGT1A1 protein levels (Western blot) ([6]; 10 uM lunasin): upregulates
- UGT1A1 expression (RT-PCR) ([6]; 10 μM lunasin): significant upregulation
- UGT1A3 expression (RT-PCR) ([6]; 10 μM lunasin): significant upregulation
- UGT1A6 expression (RT-PCR) ([6]; 10 μM lunasin): significant upregulation
- UGT1A10 expression (RT-PCR) ([6]; 10 μM lunasin): significant upregulation
- THBS protein level (Western blot) (thrombospondin (THBS); non-tumorigenic RWPE-1 cell line): upregulated
- THBS protein level (Western blot) (thrombospondin (THBS); tumorigenic RWPE-2 prostate cells): silenced
- H4-Lys16 acetylation at THBS gene (ChIP PCR) [7]: significant increase
- binding preference for histone H4 (deacetylated histone H4): preferentially binds to deacetylated histone H4
- reduction of foci formation [8]: 70%
- increase in p21/WAF1/Cip1 protein levels [9]: five-fold increase
- skin tumorigenesis (female SENCAR mice): inhibited skin tumorigenesis
- apoptosis [10]: induce apoptosis
- foci formation [11]: suppress foci formation
